Measurements taken from ChEMBL document CHEMBL1144074, “Glycoside primers of Psittacanthus cucullaris” (J Nat Prod, 1999).
Activity calls are given as the source filed them. The calls are words filed in the database; no cut-off is given here.

Tested on: CHO
Assay: Stimulation of glycosaminoglycan chains formation in xylosyltransferase-deficient CHO pgsA-745 cells by liquid scintillation spectrophotometry
Assay type: functional, cell-based
Conditions: Cricetulus griseus

Row | Structure (SMILES) | Activity
1 | COc1cc2c(=O)oc3c(OC)c(O[C@@H]4OC[C@@H](O)[C@H](O)[C@H]4O)cc4c(=O)oc(c1OC)c2c34 | Active
2 | COc1c(O)cc2c(=O)oc3c(OC)c(O[C@@H]4OC[C@@H](O)[C@H](O)[C@H]4O)cc4c(=O)oc1c2c34 | Active
